Measurements taken from patent publication US10155798B2, “Anti-obesity compounds derived from neuromedin U” (The Regents of the University of California, priority 2013, dated 2018).
*1 amine or outer side, *2 acyl side, *3 side chain or, on linkers, in order; H or OH if unused. Where a SMILES comes first, the peptide text is derived from it. Bridges are numbered along the chain shown (N, C = ends). [ ]: non-standard residue; d: D form. The star is where a group is joined. mXylylene(5-CH2SC16H33) = CCCCCCCCCCCCCCCCSCc1cc(C[*:1])cc(C[*:2])c1; X1 = CCCCCCCCCCCCCCCCN(CCCCCCCCCCCCCCCC)CCCCCC(=O)*; Tic = O=C(O)[C@@H]1Cc2ccccc2CN1; Aib = CC(C)(N)C(=O)O; Ahx = NCCCCCC(=O)O

Experiments:
[1] = biological target: T1, NMUR1 (neuromedin U 1 receptor) (Homo sapiens, UniProt Q9HB89); experiment: Calcium mobilization assay, HEK-NMU1 cells; format: cell-based; conditions: HEK293 cells expressing NMU1 receptor, NA = not active
T1 construct: expressed in transfected cells; host or cells: HEK293 (HEK-NMU1)
T1 sequence (Q9HB89 1-426): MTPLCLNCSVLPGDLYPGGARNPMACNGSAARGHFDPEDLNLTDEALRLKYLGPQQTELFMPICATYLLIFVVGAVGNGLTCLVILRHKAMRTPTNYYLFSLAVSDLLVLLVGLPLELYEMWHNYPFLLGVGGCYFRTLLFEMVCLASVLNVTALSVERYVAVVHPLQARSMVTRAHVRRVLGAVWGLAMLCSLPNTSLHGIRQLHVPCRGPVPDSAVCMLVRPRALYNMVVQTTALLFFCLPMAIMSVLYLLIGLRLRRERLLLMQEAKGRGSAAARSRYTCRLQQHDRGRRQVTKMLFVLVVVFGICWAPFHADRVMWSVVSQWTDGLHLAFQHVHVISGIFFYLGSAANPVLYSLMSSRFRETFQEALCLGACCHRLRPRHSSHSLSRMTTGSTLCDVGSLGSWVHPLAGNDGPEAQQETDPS
Method: (§1) To test whether neuromedin U can be modified/derivatized to yield truncated bioactive compound(s) that may be useful as therapeutics, we synthesized a small library (25 peptides) of hNMU analogs utilizing various stabilization protocols, including: cyclization, lipidation, introduction of α,α-disubstituted and N-methylated amino acids, retro-inverso-approach, and combination of such (see Table 1). Subsequently all analogues were tested against human neuromedin U receptors (NMUR1 and NMUR2) in calcium mobilization assay (collaboration with Dr Gary Willars, University of Leicester, UK).
HEK293 cells expressing either the neuromedin U 1 receptor or neuromedin U 2 receptor (HEK-NMU1 and HEK-NMU2 respectively) were grown to approximately 90% confluence in ELISA strip plates (96-well format) pre-coated with poly-D-lysine (0.1% w/v) and loaded for 45 min at 37° C. with 2 iM fluo-4-AM in Krebs'-HEPES buffer with bovine serum albumin (KHB-BSA; composition: 10 mM HEPES; 4.2 mM NaHCO3; 11.7 mM D-glucose; 1.18 mM MgSO4.7H2O; 1.18 mM KH2PO4; 4.69 mM KCl; 118 mM NaCl; 1.3 mM CaCl2.2H2O; 0.1% (w/v) BSA; pH 7.4). Monolayers were then washed and equilibrated for 5 min at 37° C. in 100 il KHB-BSA for subsequent recording of fluorescence as an index of intracellular [Ca^2+] ([Ca^2+]i) using a microplate reader (NOVOstar; BMG LABTECH, Aylesbury, U.K.). […]

[2] = biological target: T2, NMUR2 (neuromedin U 2 receptor) (Homo sapiens, UniProt Q9GZQ4); experiment: Calcium mobilization assay, HEK-NMU2 cells; format: cell-based; conditions: HEK293 cells expressing NMU2 receptor, NA = not active
T2 construct: expressed in transfected cells; host or cells: HEK293 (HEK-NMU2)
Method: as §1
HEK293 cells expressing either the neuromedin U 1 receptor or neuromedin U 2 receptor (HEK-NMU1 and HEK-NMU2 respectively) were grown to approximately 90% confluence in ELISA strip plates (96-well format) pre-coated with poly-D-lysine (0.1% w/v) and loaded for 45 min at 37° C. with 2 iM fluo-4-AM in Krebs'-HEPES buffer with bovine serum albumin (KHB-BSA; composition: 10 mM HEPES; 4.2 mM NaHCO3; 11.7 mM D-glucose; 1.18 mM MgSO4.7H2O; 1.18 mM KH2PO4; 4.69 mM KCl; 118 mM NaCl; 1.3 mM CaCl2.2H2O; 0.1% (w/v) BSA; pH 7.4). Monolayers were then washed and equilibrated for 5 min at 37° C. in 100 il KHB-BSA for subsequent recording of fluorescence as an index of intracellular [Ca^2+] ([Ca^2+]i) using a microplate reader (NOVOstar; BMG LABTECH, Aylesbury, U.K.). Briefly, 20 μl of KHB-BSA, with or without ligand, was added into the well (200 μl/s) and fluorescence determined at 0.5 s intervals by excitation at 485 nm and collection of emitted light at 520 nm. Changes in fluorescence above basal levels (before ligand addition) were determined. […] Fmax was obtained by removal of buffer and addition of KHB-BSA buffer containing 4 mM [Ca^2+] and ionomycin (2 μM) to representative wells and the fluorescence measured for 10 min. Fmin was then derived by replacing buffer with Ca^2+-free KHB-BSA buffer containing 2 mM EGTA and fluorescence measured for 10 min. For the determination of concentration-response relationships, the maximal change in [Ca^2+]i was calculated following ligand addition. Concentration-response curves were then fitted using a four-parameter logistic equation to determine EC50 values (GraphPad Software Inc., Calif.).

male DIO C57BL/6 mice [3] = experiment: Chronic in vivo experiments in DIO mice (body weight, food intake, gastric emptying); parameters: species or system mouse; conditions: for gastric emptying in experimental animals: s.c. 1603 nMole/kg, chronic regimen
Method: FIG. 4. Anorectic effects of NM4A in chronic in vivo experiments. (A) Ad libitum fed male DIO C57BL/6 mice were treated with either vehicle or NM4A (2.2 mg/kg; 1603 nMole/kg) every 2, 4 or 7 days for 21 days. (B) Ad libitum fed male DIO C57BL/6 mice were treated with either vehicle or NM4A (2.2 mg/kg; 1603 nMole/kg) once a week for 21 days. After initial treatment animals were kept either on high-fat diet (FD) or normal diet (ND).
FIG. 6. (A) Comparison of anorectic effects of NM4A & NM4-C16 analogs in chronic in vivo experiments. Ad libitum fed male DIO C57BL/6 mice were treated with either vehicle or NM4A (2.2 mg/kg; 1603 nMole/kg) or NM4-C16 (2.6 mg/kg; 1603 nMole/kg) every 7 days for 21 days. (B) Food intake of animals treated with NM4-C16 (2.6 mg/kg; 1603 nMole/kg) every 7 days for 21 days.
NM4A was characterized further in in vivo chronic experiments. Ad libitum fed male DIO C57BL/6 mice, which were kept on the high fat diet (Cat #D12492, Research Diets, Inc., New Brunswick, N.J.), were treated subcutaneously (s.c.) with either vehicle or NM4A (2.2 mg/kg; 1603 nMole/kg) either every 2, 4 or 7 days for 21 days. […] To determine whether NM4A can be used as an auxiliary in dieting of the obese subjects we tested its efficiency in once weekly regimen at the 2.2 mg/kg dose. In this case, ad libitum fed male DIO C57BL/6 mice were kept either on the high fat diet (FD) or regular diet (ND) during NM4A's administration.
(§2) Despite limited success with our “double-lipidation” approach, we decided to test NM4-C16 analog in vivo using once weekly subcutaneous injection regimen at the 2.6 mg/kg dose, which is equimolar to previously used NM4A dose (e.g. 1603 nMole/kg).
All animal experiments were approved by the UCLA Animal Care and Use Committee (ARC #1999-173-23) and conformed to local and national guidelines. Ad libitum fed male DIO C57BL/6 mice (n=8 per group) kept on D12492, a high-fat diet composed of 60% Kcal from fat (Research Diets, Inc., New Brunswick, N.J.) were weighed and individually dosed (s.c., 30 min prior to the onset of the dark phase of the light cycle) with either vehicle or NM4A (2.2 mg/kg; 1603 nMole/kg) every 2 days or NM4A (2.2 mg/kg; 1603 nMole/kg) every 4 days or NM4A (2.2 mg/kg; 1603 nMole/kg) every 7 days or NM4-C16 (2.6 mg/kg; 1603 nMole/kg) every 7 days for 21 days and their food intake and body weight were measured daily. […] Briefly, calculated amount of the desired peptide (1 eq) and 10 equivalents of PUREBRIGHT® SL-220 (1 mg: 10 mg) were solubilized in minimal volume of 90% absolute ethyl alcohol in water. Subsequently solution was aliquoted into Eppendorf tubes and freeze-dried. Obtained solid residue was re-solubilized in the proper amount of PBS directly before use by vortexing.

male DIO C57BL/6 mice [4] = experiment: Hematological parameters of animals treated with NM4-C16; format: in vivo, mouse; conditions: 2.6 mg/kg every 7 days for 21 days
Method: as §2

male DIO C57BL/6 mice [5] = experiment: Abdominal fat evaluation of chronically treated animals; format: in vivo, mouse; conditions: chronic treatment 21 days, 1603 nMole/kg; vehicle ~8%
Method: (§3) FIG. 7. (A) Abdominal fat evaluation of chronically treated animals. Ad libitum fed male DIO C57BL/6 mice were treated with either vehicle or NM4A (2.2 mg/kg; 1603 nMole/kg) every 2 days or NM4A (2.2 mg/kg; 1603 nMole/kg) every 4 days or ^(*)NM4-C16 (2.6 mg/kg; 1603 nMole/kg) every 7 days for 21 days. Subsequently, their abdominal fat was harvested and weighted. Results are expressed as % of abdominal fat per total body weight. (B) Distribution of NM4A in NM4A chronically treated animals (2.2 mg/kg; every 2 days for 28 days).
For three groups of animals treated every 2, 4 and 7 days we also performed abdominal fat evaluation (FIG. 7A).

Water solubility = format: physicochemical
[6] = tested on: diet induced obese (DIO) mouse model; experiment: Single dose in vivo anorectic experiments in DIO mouse model; conditions: DIO mice
Text: FIG. 3. Single dose in vivo experiments performed in DIO mouse model. (A) Comparison of anorectic effects of NM4 and NM7. (B) NM4 dose response experiments. (C) Comparison of NM4 and NM4A anorectic activity.
Initially we focused on single dose experiments comparing NM4 and NM7 at 5344 nMole/kg dose (FIG. 3).

[7] = Body distribution of NM4A in chronically treated animals; format: in vivo, mouse; conditions: 2.2 mg/kg every 2 days for 28 days
Method: as §3
To test body distribution of NM-analogs we performed also limited ADME studies in animals that underwent chronic treatment with NM4A every 2 days for 28 days (2.2 mg/kg; 1603 nMole/kg dose).
Ad libitum fed male DIO C57BL/6 mice that underwent chronic treatment with NM4A (2.2 mg/kg; 1603 nMole/kg; dosing every 2 days for 28 days) were sacrificed and their organs/tissues harvested and weighted. […] Obtained homogenate(s) were transferred to 1.5 mL Eppendorf tubes and centrifuged for 10 min at 13000 rpm.

T2 sequence (Q9GZQ4 whole entry): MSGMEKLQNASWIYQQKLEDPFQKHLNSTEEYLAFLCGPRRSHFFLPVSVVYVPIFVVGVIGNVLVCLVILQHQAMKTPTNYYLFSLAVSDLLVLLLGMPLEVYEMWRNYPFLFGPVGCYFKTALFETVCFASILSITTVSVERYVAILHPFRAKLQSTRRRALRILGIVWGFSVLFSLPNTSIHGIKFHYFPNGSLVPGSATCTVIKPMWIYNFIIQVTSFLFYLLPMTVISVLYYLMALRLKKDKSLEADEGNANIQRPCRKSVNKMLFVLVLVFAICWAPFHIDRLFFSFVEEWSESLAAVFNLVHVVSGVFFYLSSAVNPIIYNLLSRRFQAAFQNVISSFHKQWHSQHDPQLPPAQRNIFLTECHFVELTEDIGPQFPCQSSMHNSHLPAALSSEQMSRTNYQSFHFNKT

Structure (SMILES)	EC50 [1]	EC50 [2]	body weight, once-weekly administration (male DIO C57BL/6 mice [3]; s.c. 2.6 mg/kg (1603 nMole/kg) every 7 days for 21 days)	gastric emptying in experimental animals (male DIO C57BL/6 mice [3])	hematological parameters/blood cell count (male DIO C57BL/6 mice [4])	abdominal fat content (% of abdominal fat per total body weight) (male DIO C57BL/6 mice [5])	water solubility (Water solubility)	duration of anorectic effects after single dose administration ([6]; 1603 nMole/kg, 2.2 mg/kg)	in vivo activity relative to NM4 ([6]; single dose, FIG. 3C)	body weight, once weekly regimen as auxiliary in dieting (male DIO C57BL/6 mice [3]; 2.2 mg/kg once a week for 21 days, high fat diet (FD) or regular diet (ND))	anorectic effects, chronic treatment (male DIO C57BL/6 mice [3]; s.c. 2.2 mg/kg every 2 and every 4 days for 21 days, high fat diet)	anorectic effects, chronic treatment, less frequent dosage (male DIO C57BL/6 mice [3]; s.c. 2.2 mg/kg every 7 days for 21 days, high fat diet)	entry into the brain [7]	tissue with highest content [7]
CC(C)C[C@H](NC(=O)[C@H](Cc1ccccc1)NC(=O)CCCCCNC(=O)[C@@H](N)CS)C(=O)N[C@@H](Cc1ccccc1)C(=O)N[C@@H](CCCNC(=N)N)C(=O)N1Cc2ccccc2C[C@H]1C(=O)N[C@@H](CCCNC(=N)N)C(=O)N[C@@H](CC(N)=O)C(=O)NCCCCCC(=O)N[C@@H](CS)C(N)=O [NM10, C-Ahx-FL-Phe-Arg-Tic-R-Asn-Ahx-C] (H-C[Ahx]FLFR[Tic]RN[Ahx]C-NH2)	3.98 µM	2690 nM	–	–	–	–	–	–	–	–	–	–	–	–
CCCCCCCCCCCCCCCCSCc1cc2cc(c1)CSC[C@H](N)C(=O)NCCCCCC(=O)N[C@@H](Cc1ccccc1)C(=O)N[C@@H](CC(C)C)C(=O)N[C@@H](Cc1ccccc1)C(=O)N[C@@H](CCCNC(=N)N)C(=O)N1Cc3ccccc3C[C@H]1C(=O)N[C@@H](CCCNC(=N)N)C(=O)N[C@@H](CC(N)=O)C(=O)NCCCCCC(=O)N[C@H](C(N)=O)CSC2 [NM16, PalS-X(C-Ahx-FL-Phe-Arg-Tic-R-Asn-Ahx-C)] (H-C[Ahx]FLFR[Tic]RN[Ahx]C-NH2; linker 1-11 via mXylylene(5-CH2SC16H33))	3.98 µM	–	–	–	–	–	–	–	–	–	–	–	–	–
CCCCCCCCCCCCCCCCN(CCCCCCCCCCCCCCCC)CCCCCC(=O)NC(C)(C)C(=O)N[C@@H](Cc1ccccc1)C(=O)N[C@@H](CC(C)C)C(=O)N[C@@H](Cc1ccccc1)C(=O)N[C@@H](CCCNC(=N)N)C(=O)N1CCC[C@H]1C(=O)N[C@@H](CCCNC(=N)N)C(=O)N[C@@H](CC(N)=O)C(N)=O [Peptide M4-C16, (c16)2-Ahx-Aib-FL-Phe-Arg-Pro-R-Asn] (X1-[Aib]FLFRPRN-NH2)	–	741 ± 32 nM	sustained weight loss	very limited gastric emptying	appears to be normal	~5%	limited water solubility	–	–	–	–	–	–	–
CCCCCCCCCCCCCCCCNC(=O)CNCC(=O)NC(C)(C)C(=O)N[C@@H](Cc1ccccc1)C(=O)N[C@@H](CC(C)C)C(=O)N[C@@H](Cc1ccccc1)C(=O)N[C@@H](CCCNC(=N)N)C(=O)N1CCC[C@H]1C(=O)N[C@@H](CCCNC(=N)N)C(=O)N[C@@H](CC(N)=O)C(N)=O [Peptide M4A, Ida^NHPal-Aib-FL-Phe-Arg-Pro-R-Asn]	–	6.46 ± 0.89 nM	–	causes initially gastric emptying	–	~5%	limited water solubility	≤ 20 days	at least 3.5 times	additional body weight decrease	potent anorectic effects	limited activity	does not appear to enter the brain effectively	highest content of NM4A is detected in plasma
